{"source": "patent US5837548A", "about": "“Treatment of inflammation by inhibition of lipid body formation” (Beth Israel Hospital, priority 1995, dated 1998)", "type_in_all_cases": "cell-based", "key": {"[1]": {"system": "human neutrophils (LTB4 production)", "experiment": "LTB4 production by human neutrophils (priming, A23187 stimulation, ELISA)", "method": "(§1) FIG. 1A is a graph illustrating the effect of arachidonic acid (AA) and oleic acid (OA) on induction of lipid body formation (black) and priming effects (white) for enhanced leukotriene B4 (LTB4) by human neutrophils. Neutrophils (10^6 /mL) were stimulated for one hour with arachidonic acid (3.7, 7.5, 15 μM) or oleic acid (2.5, 5, 10 μM). Lipid bodies were enumerated using light microscopy following osmium staining. The concentration of LTB4 in the supernatant was measured by ELISA after incubation with A23187 (0.5 μM) for 15 minutes at 37° C. Data are expressed as mean from 2-3 independent assays performed in duplicate.\n(§2) FIG. 5A is a graph showing that aspirin inhibits cis-unsaturated fatty acid-induced priming for enhanced leukotriene B4 (LTB4) production in human neutrophils. Striped and open columns represent vehicle treated cells and aspirin treated cells, respectively. Cells (10^6 /mL) were pretreated with aspirin (10 μg/mL) or vehicle for one hour and then stimulated with OA (10 μM) or vehicle for one hour. The concentration of LTB4 in the supernatant was measured by ELISA after incubation with A23187 (0.5 μM) for 15 minutes at 37° C. Data are expressed as mean from 2-4 independent assays performed in duplicate. The statistically significant difference between the vehicle alone and the agonist is represented by a cross. Statistically significant differences due to pretreatment with aspirin are indicated by an asterisk.\n(§3) After the incubation time, a sample was taken for lipid body enumeration and the cells were washed in Ca^++ /Mg^++ free HBSS. Leukocytes were resuspended in 1 mL of HBSS containing Ca^++ /Mg^++ and then stimulated with A23187 (0.5 μM) for 15 min. The reaction was stopped on ice, and the samples were centrifuged at 1500 rpm for 10 min at 4° C. The concentrations of PGE2, LTB4, and LTC4 in the supernatants were assayed by ELISA according to the manufacturer's instructions (Cayman, Ann Arbor, Mich.)."}, "[2]": {"system": "human eosinophils (LTC4 production)", "experiment": "LTC4 production by human eosinophils (priming, A23187 stimulation, ELISA)", "method": "as §1, with “2A” for “1A”, “C4 (LTC4)” for “B4 (LTB4)”, “eosinophils. Eosinophils” for “neutrophils. Neutrophils”, “LTC4” for “LTB4”, “2” for “2-3”\nas §2, with “5B” for “5A”, “C4 (LTC4)” for “B4 (LTB4)”, “eosinophils.” for “neutrophils.”, “LTC4” for “LTB4”\nas §3"}, "human neutrophils": {"system": "human neutrophils", "experiment": "cis-unsaturated fatty acid-induced lipid body formation in human neutrophils (osmium staining, light microscopy enumeration)", "conditions": "human neutrophils", "method": "Neutrophils were purified from fresh human blood obtained by venipuncture from healthy adult volunteers and collected into acidified citrate. After addition of 6% dextran 70 (McGaw, Irvine, Calif.), RBCs were allowed to sediment for 1 hour at room temperature. The leukocyte-rich supernatant was overlaid onto an equal volume of Ficoll-Paque gradient (Piscataway, N.J.), and centrifuged at 400×g for 20 min. […] Residual RBCs were lysed with hypotonic saline.\nHuman leukocytes (10^6 cells/mL) were incubated with varying concentrations of arachidonic acid (AA), oleic acid (OA) or vehicle at 37° C. in a 5% CO2 /95% O2 atmosphere, and after 1 hour leukocytes (10^5 cells per slide) were cytocentrifuged (550 rpm, 5 min) onto glass slides. During inhibitory studies, neutrophils were pretreated for 1 hour with varying concentrations of enzyme inhibitors, protein synthesis inhibitors, or vehicle as indicated. When PKC inhibitors were used, the pre-incubation time was reduced to 30 minutes to avoid toxic effects to the cells. […] Stock solutions for A23187, D609, U-73122, and indomethacin were prepared in DMSO and stored at -20° C. Aliquots were diluted in Ca^++ /Mg^++ fee HBSS to the indicated concentration immediately prior to use. […] The morphology of fixed cells was observed, and lipid bodies were enumerated with phase contrast microscopy and a 100× objective lens in 50 consecutively scanned leukocytes.\nResults were expressed as mean±SEM and were analyzed statistically by means of the analysis of variance followed by the Newman-Keuls-Student test with the level of significance set at p<0.05. Correlation coefficients were determined by linear regression, and correlation analysis was performed by Fisher's r to z transformation with the level of significance set at p<0.05.\n^1 Neutrophils (10^6 /ml) were pretreated with protein kinase C\n(actinomycin D, cycloheximide) for 30 min or with phospholipase C\ninhibitors (D609, U73122) for 1 h. The cells were then stimulated with\nvehicle, arachidonic acid (15 μM), or oleic acid (10 μM), for 1 h.\nResults are mean ± SEM from fifty consecutively counted neutrophils.\nStatistically significant differences between the agonist alone and the\ninhibitor are represented by an asterisk(*). Percent inhibition has been\ncalculated after subtracting out the basal number of lipid bodies/PMN\npresent prior to stimulation.\n^1 Neutrophils (10^6 /ml) were pretreated with the NSAID or\nvehicle for 1 h then stimulated with vehicle, arachidonic acid, or oleic\n± SEM from fifty consecutively counted neutrophils. Statistically\nsignificant differences between the agonist alone and the NSAID are\nrepresented by an asterisk (*). Percent inhibition has been calculated\nafter subtracting out the basal number of lipid bodies/PMN present prior"}, "[3]": {"conditions": "Homo sapiens, Neutrophil, 1 h, read-out: fold increase in production of LTB4"}, "[4]": {"conditions": "Homo sapiens, Eosinophil, 1 h, read-out: fold increase in production of LTC4"}, "[5]": {"conditions": "cells not pre-stimulated with cis-unsaturated fatty acids"}, "[6]": {"conditions": "staurosporine 0.1-1.0 μM, aspirin 10 μg/mL, others as in Tables 1 and 2"}}, "data": [{"molecule": "CCCCC/C=C\\C/C=C\\C/C=C\\C/C=C\\CCCC(=O)O", "note": "[arachidonic acid]", "values": [{"measurement": "fold induction at 15 µM", "setting": "[1]; [3]", "result": 2.3}, {"measurement": "increase in production of LTB4", "setting": "[1]; neutrophils", "result": "dose-dependent increase in production"}, {"measurement": "fold induction at 15 µM", "setting": "[2]; [4]", "result": 1.4}, {"measurement": "increase in production of LTC4", "setting": "[2]; eosinophils", "result": "dose-dependent increase in production"}, {"measurement": "increase in number of lipid bodies", "setting": "human neutrophils", "result": "dose-dependent increase in the number of lipid bodies"}]}, {"molecule": "CC(=O)Oc1ccccc1C(=O)O", "note": "[aspirin]", "values": [{"measurement": "inhibition of calcium ionophore-induced LTB4 production", "setting": "[1]; [5]", "result": "failed to inhibit"}, {"measurement": "inhibition of oleic acid-induced priming for enhanced LTB4 production", "setting": "[1]; neutrophils, 10 μg/mL, OA 10 μM", "result": "significantly inhibited"}, {"measurement": "inhibition of calcium ionophore-induced LTC4 production", "setting": "[2]; [5]", "result": "failed to inhibit"}, {"measurement": "inhibition of oleic acid-induced priming for enhanced LTC4 production", "setting": "[2]; eosinophils, 10 μg/mL, OA 10 μM", "result": "significantly inhibited"}, {"measurement": "inhibition of arachidonic acid-induced lipid body formation", "setting": "human neutrophils; [6]", "result": "significantly inhibited"}, {"measurement": "inhibition of oleic acid-induced lipid body formation", "setting": "human neutrophils; [6]", "result": "significantly inhibited"}]}, {"molecule": "CCCCCCCC/C=C\\CCCCCCCC(=O)O", "note": "[oleic acid]", "values": [{"measurement": "fold induction at 10 µM", "setting": "[1]; [3]", "result": 2}, {"measurement": "increase in production of LTB4", "setting": "[1]; neutrophils", "result": "dose-dependent increase in production"}, {"measurement": "correlation (r) between number of lipid bodies and priming for enhanced LTB4 release", "setting": "[1]; oleic acid, leukocytes, p<0.05", "result": 0.96}, {"measurement": "fold induction at 10 µM", "setting": "[2]; [4]", "result": 1.7}, {"measurement": "increase in production of LTC4", "setting": "[2]; eosinophils", "result": "dose-dependent increase in production"}, {"measurement": "correlation (r) between number of lipid bodies and priming for enhanced LTC4 release", "setting": "[2]; oleic acid, leukocytes, p<0.05", "result": 0.95}, {"measurement": "increase in number of lipid bodies", "setting": "human neutrophils", "result": "dose-dependent increase in the number of lipid bodies"}]}]}
